Results published in ChEMBL document CHEMBL4033668, “Inhibitors of cytochrome P450 (CYP) 1B1” (Eur J Med Chem, 2017).
Each block holds one compound with its values, some of them ahead of it.

Legend:
Cytochrome P450 1B1 [1] = target: T1, Cytochrome P450 1B1 (Homo sapiens, UniProt Q16678); test: Inhibition of CYP1B1 (unknown origin) expressed in Escherichia coli DH5alpha coexpressing human NADPH-P450 reductase using 7-Ethoxyresorufin as substrate up to 6 mins in presence of NADP+ by spectrofluorometric analysis
T1 sequence (Q16678 whole entry): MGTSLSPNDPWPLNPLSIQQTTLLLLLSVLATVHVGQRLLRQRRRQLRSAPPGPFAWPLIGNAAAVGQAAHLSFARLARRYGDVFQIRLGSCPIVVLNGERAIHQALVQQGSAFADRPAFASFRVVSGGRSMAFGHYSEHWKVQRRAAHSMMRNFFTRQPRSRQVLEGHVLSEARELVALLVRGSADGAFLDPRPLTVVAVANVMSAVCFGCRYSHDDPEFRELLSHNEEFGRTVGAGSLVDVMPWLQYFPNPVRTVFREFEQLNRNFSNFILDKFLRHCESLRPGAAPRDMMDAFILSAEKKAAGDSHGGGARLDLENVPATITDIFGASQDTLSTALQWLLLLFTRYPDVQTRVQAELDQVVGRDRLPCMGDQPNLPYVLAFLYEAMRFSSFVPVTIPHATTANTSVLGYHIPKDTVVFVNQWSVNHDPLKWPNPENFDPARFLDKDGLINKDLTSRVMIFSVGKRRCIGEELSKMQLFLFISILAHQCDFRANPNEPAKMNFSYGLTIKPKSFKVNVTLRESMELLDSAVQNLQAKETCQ

Cytochrome P450 1A1 [2] = target: T2, Cytochrome P450 1A1 (Homo sapiens, UniProt P04798); test: Inhibition of CYP1A1 (unknown origin) expressed in Escherichia coli DH5alpha coexpressing human NADPH-P450 reductase using 7-Ethoxyresorufin as substrate up to 6 mins in presence of NADP+ by spectrofluorometric analysis; type: ADME
T2 sequence (P04798 whole entry): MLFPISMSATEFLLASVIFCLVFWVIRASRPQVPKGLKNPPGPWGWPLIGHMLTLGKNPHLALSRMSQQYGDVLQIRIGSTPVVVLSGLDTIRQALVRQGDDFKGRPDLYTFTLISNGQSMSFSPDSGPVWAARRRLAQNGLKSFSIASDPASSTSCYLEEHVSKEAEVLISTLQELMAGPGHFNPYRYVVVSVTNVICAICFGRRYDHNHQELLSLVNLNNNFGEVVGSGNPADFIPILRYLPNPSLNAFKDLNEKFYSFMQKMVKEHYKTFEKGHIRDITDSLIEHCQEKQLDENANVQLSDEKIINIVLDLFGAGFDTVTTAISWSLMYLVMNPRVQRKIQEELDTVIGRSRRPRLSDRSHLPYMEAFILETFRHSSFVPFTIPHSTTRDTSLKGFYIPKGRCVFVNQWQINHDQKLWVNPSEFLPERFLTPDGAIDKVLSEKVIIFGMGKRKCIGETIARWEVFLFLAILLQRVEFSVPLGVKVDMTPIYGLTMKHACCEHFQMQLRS

Cytochrome P450 1A2 [3] = target: T3, Cytochrome P450 1A2 (Homo sapiens, UniProt P05177); test: Inhibition of CYP1A2 (unknown origin) expressed in Escherichia coli DH5alpha coexpressing human NADPH-P450 reductase using 7-Ethoxyresorufin as substrate up to 6 mins in presence of NADP+ by spectrofluorometric analysis; type: ADME
T3 sequence (P05177 whole entry): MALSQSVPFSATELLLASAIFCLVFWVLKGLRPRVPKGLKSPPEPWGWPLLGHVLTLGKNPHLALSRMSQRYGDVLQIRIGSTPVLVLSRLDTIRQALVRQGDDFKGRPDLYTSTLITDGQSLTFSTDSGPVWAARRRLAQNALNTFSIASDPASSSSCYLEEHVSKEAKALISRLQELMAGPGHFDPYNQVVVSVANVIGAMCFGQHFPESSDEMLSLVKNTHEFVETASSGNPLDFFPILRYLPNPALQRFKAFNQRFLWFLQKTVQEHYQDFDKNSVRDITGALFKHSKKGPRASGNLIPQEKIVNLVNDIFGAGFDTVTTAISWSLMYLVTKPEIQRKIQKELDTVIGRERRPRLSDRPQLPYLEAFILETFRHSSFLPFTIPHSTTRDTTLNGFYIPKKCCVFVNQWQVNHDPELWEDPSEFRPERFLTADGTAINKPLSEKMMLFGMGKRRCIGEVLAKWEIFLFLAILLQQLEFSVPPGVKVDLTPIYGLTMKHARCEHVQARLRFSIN

Cytochrome P450 1B1 [4] = target: T1, Cytochrome P450 1B1; test: Inhibition of recombinant CYP1B1 (unknown origin) expressed in Escherichia coli DH5alphaF'Iq coexpressing human NADPH-P450 reductase using E2-d4 as substrate after 10 mins in presence of NADP+
Cytochrome P450 1B1 [5] = target: T1, Cytochrome P450 1B1; test: Inhibition of CYP1B1 in […] recombinant human cytochrome P450 oxidoreductase using 7-ethoxyresorufin as substrate after 3 mins in presence of NADP+ by fluorescence assay
Cytochrome P450 1B1 [6] = target: T1, Cytochrome P450 1B1; test: Inhibition of human CYP1B1 expressed in Escherichia coli DH5alpha coexpressing human NADPH-P450 reductase using 4-estradiol as substrate in presence of NADP+ by HPLC analysis
Cytochrome P450 1B1 [7] = target: T1, Cytochrome P450 1B1; test: Inhibition of human CYP1B1 expressed in Escherichia coli DH5alpha coexpressing human NADPH P450 reductase using 7-ethoxyresorufin as substrate in presence of NADP+ by spectrofluorometeric analysis
Cytochrome P450 1A1 [8] = target: T2, Cytochrome P450 1A1; test: Inhibition of […] CYP1A1 expressed in Escherichia coli DH5alpha coexpressing NADPH-P450 reductase using 7-ethoxyresorufin O-deethylation as substrate in presence of NADPH by UV absorbance analysis; type: ADME
Cytochrome P450 1A2 [9] = target: T3, Cytochrome P450 1A2; test: Inhibition of […] CYP1A2 expressed in Escherichia coli DH5alpha coexpressing NADPH-P450 reductase using 7-ethoxyresorufin O-deethylation as substrate in presence of NADPH by UV absorbance analysis; type: ADME
Cytochrome P450 1B1 [10] = target: T1, Cytochrome P450 1B1; test: Inhibition of […] CYP1B1 expressed in Escherichia coli DH5alpha coexpressing NADPH-P450 reductase using 7-ethoxyresorufin O-deethylation as substrate in presence of NADPH by UV absorbance analysis
Cytochrome P450 1A2 [11] = target: T3, Cytochrome P450 1A2; test: Inhibition of recombinant human CYP1A2 expressed in supersomes using 7-ethoxyresorufin O-deethylation as substrate after 5 mins in presence of NADP+ by spectrofluorimetric analysis; type: ADME
CYP1B1 = target: T4, CYP1B1 (Homo sapiens, UniProt Q16678); test: (§1) Inhibition of CYP1B1 (unknown origin) expressed in Escherichia coli DH5alpha coexpressing human NADPH P450 reductase using 7-ethoxyresorufin as substrate after 2 to 6 mins in presence of NADPH by double reciprocal plot analysis; conditions: human, probe 7-ethoxyresorufin
T4 sequence (Q16678 whole entry): T1 sequence (Q16678 whole entry)

Cytochrome P450 1B1 [12] = target: T1, Cytochrome P450 1B1; test: as §1
Cytochrome P450 1B1 [13] = target: T1, Cytochrome P450 1B1; test: Inhibition of human CYP1B1 expressed in Escherichia coli DH5alpha coexpressing human NADPH-P450 reductase using 4-estradiol as substrate in presence of NADP+ by Michaelis-Menten plot analysis
Cytochrome P450 1B1 [14] = target: T1, Cytochrome P450 1B1; test: Inhibition of human CYP1B1 expressed in Escherichia coli DH5alpha coexpressing human NADPH P450 reductase using 7-ethoxyresorufin as substrate in presence of NADP+ by fluorimetric analysis
Cytochrome P450 1A1 [15] = target: T2, Cytochrome P450 1A1; test: Inhibition of recombinant CYP1A1 (unknown origin) expressed in Escherichia coli DH5alphaF'Iq coexpressing human NADPH-P450 reductase using E2-d4 as substrate after 10 mins in presence of NADP+; type: ADME
Cytochrome P450 1B1 [16] = target: T1, Cytochrome P450 1B1; test: Inhibition of recombinant CYP1B1 (unknown origin) expressed in supersomes coexpressing NADPH-CYP reductase using 7-ethoxyresorufin as substrate after 15 mins in presence of NADP+ by fluorescence spectrophotometric analysis
Cytochrome P450 1B1 [17] = target: T1, Cytochrome P450 1B1; test: Inhibition of recombinant CYP1B1 (unknown origin) expressed in supersomes coexpressing NADPH-CYP reductase using 7-ethoxyresorufin as substrate after 15 mins in presence of NADP+ by Lineweaver-Burk plot analysis
Cytochrome P450 1B1 [18] = target: T1, Cytochrome P450 1B1; test: Competitive inhibition of CYP1B1 (unknown origin) expressed in yeast microsomes using (-)benzo[a]pyrene-7R-trans-7,8-dihyrodiol (B[a]P-7,8-diol) as substrate

Structure (SMILES): N#C[Se]Cc1ccccc1C[Se]C#N
IC50 (Cytochrome P450 1B1 [1]): 130 to 270 nM
IC50 (Cytochrome P450 1A1 [2]): 100 to 450 nM
IC50 (Cytochrome P450 1A2 [3]): 200 to 1300 nM

Structure (SMILES): COc1c(O)ccc2c1CC[C@@H]1[C@@H]2CC[C@]2(C)[C@@H](O)CC[C@@H]12
Ki (Cytochrome P450 1B1 [4]): 149000 nM

Structure (SMILES): O=c1cc(-c2ccccc2)oc2cccc(O)c12 [5-HYDROXYFLAVONE]
IC50 (Cytochrome P450 1B1 [7]): 210 nM

Structure (SMILES): N#C[Se]Cc1ccccc1 [BENZYLSELENOCYANATE]
IC50 (Cytochrome P450 1B1 [1]): 130 to 270 nM
IC50 (Cytochrome P450 1A1 [2]): 100 to 450 nM
IC50 (Cytochrome P450 1A2 [3]): 200 to 1300 nM

Structure (SMILES): Cc1cc(O)c2c(c1)C(=O)c1cc(O)cc(O)c1C2=O [EMODIN]
IC50 (Cytochrome P450 1A2 [11]): 3730 nM

Structure (SMILES): N#C[Se]Cc1cccc(C[Se]C#N)c1
IC50 (Cytochrome P450 1B1 [1]): 130 to 270 nM
IC50 (Cytochrome P450 1A1 [2]): 100 to 450 nM
IC50 (Cytochrome P450 1A2 [3]): 200 to 1300 nM

Structure (SMILES): c1ccc2c(c1)ccc1cc3c(ccc4ccccc43)cc12
IC50 (Cytochrome P450 1B1 [14]): 9 nM

Structure (SMILES): COc1ccc(-c2cc(=O)c3c(O)cc(O)cc3o2)cc1OC
IC50 (Cytochrome P450 1B1 [7]): 19 nM

Structure (SMILES): O=c1cc(-c2ccccc2)oc2cc(O)ccc12 [7-HYDROXYFLAVONE]
IC50 (Cytochrome P450 1B1 [7]): 250 nM

Structure (SMILES): COc1cc2c(cc1O)CC[C@@H]1[C@@H]2CC[C@]2(C)[C@@H](O)CC[C@@H]12 [2-METHOXYESTRADIOL]
Ki (Cytochrome P450 1A1 [15]): 88000 nM
Ki (Cytochrome P450 1B1 [4]): 36000 nM

Structure (SMILES): CC(C)=CCOc1c2occc2cc2ccc(=O)oc12 [PENTOSALEN]
Ki (Cytochrome P450 1B1 [18]): 1000 nM

Other lines, results leading:

Ki (Cytochrome P450 1B1 [5]): 1900 nM
Structure (SMILES): COc1ccc(-c2coc3cc(O)cc(O)c3c2=O)cc1 [BIOCHANIN]

Ki (Cytochrome P450 1B1 [5]): 3700 nM
Structure (SMILES): COc1ccc(-c2coc3cc(O)ccc3c2=O)cc1 [FORMONONETIN]

IC50 (Cytochrome P450 1B1 [6]): 4100 nM
Structure (SMILES): COc1c(O)ccc2cc3[n+](cc12)CCc1cc2c(cc1-3)OCO2 [THALIDENDINE]

IC50 (Cytochrome P450 1A1 [8]): 2560 nM
IC50 (Cytochrome P450 1A2 [9]): 2570 nM
IC50 (Cytochrome P450 1B1 [10]): 90 nM
Structure (SMILES): O=c1c2ccccc2nc2n1CCc1c-2[nH]c2ccc(O)cc12

kinact (CYP1B1): 0.000667 s⁻¹
Ki (Cytochrome P450 1B1 [12]): 2300 nM
Structure (SMILES): CC#Cc1ccc(-c2ccccc2)cc1

Ki (Cytochrome P450 1B1 [13]): 44 nM
IC50 (Cytochrome P450 1B1 [6]): 330 nM
Structure (SMILES): COc1ccc2cc3[n+](cc2c1OC)CCc1cc2c(cc1-3)OCO2 [BERBERINE]

Ki (Cytochrome P450 1B1 [16]): 300 nM
Ki (Cytochrome P450 1B1 [17]): 41 nM
Structure (SMILES): COc1ccccc1/C=C/c1ccc(SC)cc1
